Assays:
[1] = tested on: HCT116 (colon) cancer cell line; experiment: MTT antiproliferative assay, HCT116; assay type: cell-based; details: for IC50: Homo sapiens, HCT-116, 72 h, read-out: IC50 ± SE, HCT116; for SI (selectivity index), HCT116: IC50 of RPE1 relative to that of HCT116
VEGFR-2 [2] = target: T1, VEGFR-2 (Homo sapiens, UniProt P35968); experiment: VEGFR-2 Western blot in MCF7; assay type: cell-based; details: for VEGFR2 MCF7 % Inhibition: Western blot at MTT-IC50; for VEGFR2 MCF7 RQ (relative quantification): Western blot at MTT-IC50, control RQ 3.725
T1 sequence (P35968 20-1356): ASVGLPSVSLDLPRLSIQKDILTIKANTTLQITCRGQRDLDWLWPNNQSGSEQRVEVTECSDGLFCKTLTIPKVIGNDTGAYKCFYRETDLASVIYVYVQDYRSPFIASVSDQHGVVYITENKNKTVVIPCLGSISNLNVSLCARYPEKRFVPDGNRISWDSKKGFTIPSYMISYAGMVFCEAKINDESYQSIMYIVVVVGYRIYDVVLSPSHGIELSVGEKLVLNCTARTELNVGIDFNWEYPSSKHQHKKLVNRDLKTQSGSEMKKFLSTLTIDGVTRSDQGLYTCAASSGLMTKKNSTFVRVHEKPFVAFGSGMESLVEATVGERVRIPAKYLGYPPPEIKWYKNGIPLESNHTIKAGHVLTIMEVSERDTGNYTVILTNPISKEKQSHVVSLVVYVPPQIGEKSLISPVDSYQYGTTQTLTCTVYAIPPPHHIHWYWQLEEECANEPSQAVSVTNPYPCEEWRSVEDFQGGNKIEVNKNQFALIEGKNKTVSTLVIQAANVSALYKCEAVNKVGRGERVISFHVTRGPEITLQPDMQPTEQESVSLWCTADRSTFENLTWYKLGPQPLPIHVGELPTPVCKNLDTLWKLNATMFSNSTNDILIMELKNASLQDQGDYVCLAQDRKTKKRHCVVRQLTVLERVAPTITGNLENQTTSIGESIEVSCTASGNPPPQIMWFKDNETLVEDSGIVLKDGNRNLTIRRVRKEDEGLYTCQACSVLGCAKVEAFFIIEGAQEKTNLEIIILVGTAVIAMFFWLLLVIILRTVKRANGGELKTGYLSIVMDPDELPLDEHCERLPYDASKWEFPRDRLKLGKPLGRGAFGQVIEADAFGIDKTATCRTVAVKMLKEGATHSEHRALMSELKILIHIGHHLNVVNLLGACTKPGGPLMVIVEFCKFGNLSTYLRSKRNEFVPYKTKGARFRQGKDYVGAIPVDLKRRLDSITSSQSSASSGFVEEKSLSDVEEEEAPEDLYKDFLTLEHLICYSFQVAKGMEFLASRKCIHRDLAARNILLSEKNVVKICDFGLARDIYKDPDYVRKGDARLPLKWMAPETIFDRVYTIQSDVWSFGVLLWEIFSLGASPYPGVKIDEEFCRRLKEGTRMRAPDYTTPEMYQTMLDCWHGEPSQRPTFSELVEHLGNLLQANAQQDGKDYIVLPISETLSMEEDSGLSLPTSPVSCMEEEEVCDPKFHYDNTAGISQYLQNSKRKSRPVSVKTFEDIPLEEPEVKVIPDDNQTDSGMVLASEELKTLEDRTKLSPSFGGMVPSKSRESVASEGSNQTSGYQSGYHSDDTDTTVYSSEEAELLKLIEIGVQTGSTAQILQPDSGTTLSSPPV

COX-2 = target: T2, COX-2 (Homo sapiens, UniProt P35354); experiment: COX-2 inhibitor screening kit; assay type: biochemical
T2 sequence (P35354 18-604): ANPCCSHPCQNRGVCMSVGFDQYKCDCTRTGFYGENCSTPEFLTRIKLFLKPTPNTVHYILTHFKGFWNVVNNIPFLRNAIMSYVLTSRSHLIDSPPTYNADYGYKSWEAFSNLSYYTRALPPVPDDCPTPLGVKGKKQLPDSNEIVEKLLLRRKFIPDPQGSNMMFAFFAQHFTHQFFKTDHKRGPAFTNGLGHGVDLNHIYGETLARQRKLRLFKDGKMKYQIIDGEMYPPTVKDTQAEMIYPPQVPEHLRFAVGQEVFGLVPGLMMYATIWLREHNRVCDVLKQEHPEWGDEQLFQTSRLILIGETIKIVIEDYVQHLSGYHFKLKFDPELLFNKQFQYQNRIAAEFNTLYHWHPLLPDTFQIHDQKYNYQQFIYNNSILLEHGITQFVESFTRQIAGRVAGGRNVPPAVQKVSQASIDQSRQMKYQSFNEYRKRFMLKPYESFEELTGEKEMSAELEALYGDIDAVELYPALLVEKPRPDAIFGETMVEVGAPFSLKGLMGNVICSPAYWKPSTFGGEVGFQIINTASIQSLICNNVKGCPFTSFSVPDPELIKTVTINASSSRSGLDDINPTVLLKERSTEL

EGFR [3] = target: T3, EGFR (Homo sapiens, UniProt P00533); experiment: EGFR Western blot in HCT116; assay type: cell-based; details: for EGFR HCT116 % Inhibition: Western blot at MTT-IC50; for EGFR HCT116 RQ (relative quantification): Western blot at MTT-IC50, control RQ 4.0382
T3 sequence (P00533 25-1210): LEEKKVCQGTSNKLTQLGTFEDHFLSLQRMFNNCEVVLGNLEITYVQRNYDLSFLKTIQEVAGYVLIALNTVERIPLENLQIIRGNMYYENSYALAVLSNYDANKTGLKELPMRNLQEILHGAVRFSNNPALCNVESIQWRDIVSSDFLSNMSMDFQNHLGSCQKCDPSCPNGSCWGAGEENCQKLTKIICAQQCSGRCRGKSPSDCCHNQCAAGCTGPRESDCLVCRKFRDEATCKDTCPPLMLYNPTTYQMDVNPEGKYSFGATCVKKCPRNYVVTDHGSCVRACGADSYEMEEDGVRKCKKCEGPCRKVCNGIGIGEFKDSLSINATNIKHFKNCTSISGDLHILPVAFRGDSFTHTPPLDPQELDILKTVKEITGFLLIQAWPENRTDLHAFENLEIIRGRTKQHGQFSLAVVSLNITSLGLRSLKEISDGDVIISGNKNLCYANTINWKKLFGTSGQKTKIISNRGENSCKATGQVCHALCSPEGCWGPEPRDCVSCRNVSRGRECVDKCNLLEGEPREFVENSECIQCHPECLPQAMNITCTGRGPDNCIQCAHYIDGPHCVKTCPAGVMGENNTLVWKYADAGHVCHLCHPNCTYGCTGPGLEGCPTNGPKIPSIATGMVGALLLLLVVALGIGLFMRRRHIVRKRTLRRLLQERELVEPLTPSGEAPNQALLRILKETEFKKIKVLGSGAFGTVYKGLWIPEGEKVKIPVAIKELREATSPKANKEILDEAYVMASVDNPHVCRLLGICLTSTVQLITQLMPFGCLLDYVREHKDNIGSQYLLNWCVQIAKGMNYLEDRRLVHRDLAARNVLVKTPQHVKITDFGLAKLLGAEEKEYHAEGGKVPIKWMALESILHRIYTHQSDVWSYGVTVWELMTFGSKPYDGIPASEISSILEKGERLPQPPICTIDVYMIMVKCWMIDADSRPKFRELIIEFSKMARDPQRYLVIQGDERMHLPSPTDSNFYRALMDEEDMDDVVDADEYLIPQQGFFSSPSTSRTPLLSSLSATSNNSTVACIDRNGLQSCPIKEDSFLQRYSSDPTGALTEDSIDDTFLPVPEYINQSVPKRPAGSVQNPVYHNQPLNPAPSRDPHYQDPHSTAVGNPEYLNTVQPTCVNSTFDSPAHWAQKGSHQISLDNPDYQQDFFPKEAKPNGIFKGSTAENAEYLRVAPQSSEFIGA

[4] = tested on: MCF7 (breast) cancer cell line; experiment: MTT antiproliferative assay, MCF7; assay type: cell-based; details: for IC50: Homo sapiens, MCF7, 72 h, read-out: IC50 ± SE, MCF7; for SI (selectivity index), MCF7: IC50 of RPE1 relative to that of MCF7
[5] = tested on: RPE1 (normal human immortalized retinal pigment epithelial cell line); experiment: MTT assay against normal RPE1 cells; assay type: cell-based; details: RPE-1, read-out: IC50 ± SE, RPE1
EGFR [6] = target: T3, EGFR; experiment: EGFR Western blot in MCF7; assay type: cell-based; details: for EGFR MCF7 % Inhibition: Western blot at MTT-IC50; for EGFR MCF7 RQ (relative quantification): Western blot at MTT-IC50, control RQ 4.226
COX-1 = target: T4, COX-1 (Ovis aries, UniProt P05979); experiment: COX-1 inhibitor screening kit; assay type: biochemical
T4 sequence (P05979 25-600): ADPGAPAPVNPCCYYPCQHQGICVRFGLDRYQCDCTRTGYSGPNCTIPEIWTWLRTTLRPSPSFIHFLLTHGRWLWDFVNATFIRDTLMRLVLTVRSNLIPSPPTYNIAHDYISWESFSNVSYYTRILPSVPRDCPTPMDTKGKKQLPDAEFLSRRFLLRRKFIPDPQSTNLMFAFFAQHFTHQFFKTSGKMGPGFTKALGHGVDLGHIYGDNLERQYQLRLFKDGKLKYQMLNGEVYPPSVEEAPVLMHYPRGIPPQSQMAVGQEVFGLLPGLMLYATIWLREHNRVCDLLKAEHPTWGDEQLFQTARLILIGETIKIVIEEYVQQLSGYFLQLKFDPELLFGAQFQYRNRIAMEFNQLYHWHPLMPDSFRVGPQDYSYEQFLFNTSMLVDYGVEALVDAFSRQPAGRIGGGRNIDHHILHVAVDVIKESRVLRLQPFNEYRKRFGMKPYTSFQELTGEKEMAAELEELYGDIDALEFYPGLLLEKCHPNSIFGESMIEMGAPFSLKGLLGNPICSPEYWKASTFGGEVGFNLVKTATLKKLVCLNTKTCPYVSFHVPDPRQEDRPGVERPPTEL

[7] = tested on: A431 (squamous skin) cancer cell line; experiment: MTT antiproliferative assay, A431; assay type: cell-based; details: for IC50: Homo sapiens, A-431, 72 h, read-out: IC50 ± SE, A431; for SI (selectivity index), A431: IC50 of RPE1 relative to that of A431
VEGFR-2 [8] = target: T1, VEGFR-2; experiment: VEGFR-2 Western blot in HCT116; assay type: cell-based; details: for VEGFR2 HCT116 % Inhibition: Western blot at MTT-IC50; for VEGFR2 HCT116 RQ (relative quantification): Western blot at MTT-IC50, control RQ 3.817
[9] = tested on: SARS-CoV-2 (hCoV-19/Egypt/NRC-03/2020); details: SARS-CoV-2 / VERO-E6

| Structure (SMILES) | IC50 [1] [nM] | SI (selectivity index), HCT116 [1] | VEGFR2 MCF7 % Inhibition (VEGFR-2 [2]) [%] | VEGFR2 MCF7 RQ (relative quantification) (VEGFR-2 [2]) | IC50 (COX-2) [nM] | SI = IC50(COX-1)/IC50(COX-2) (COX-2) | EGFR HCT116 % Inhibition (EGFR [3]) [%] | EGFR HCT116 RQ (relative quantification) (EGFR [3]) | IC50 [4] [nM] | SI (selectivity index), MCF7 [4] | IC50 [5] [nM] | EGFR MCF7 % Inhibition (EGFR [6]) [%] | EGFR MCF7 RQ (relative quantification) (EGFR [6]) | IC50 (COX-1) [nM] | IC50 [7] [nM] | SI (selectivity index), A431 [7] | VEGFR2 HCT116 % Inhibition (VEGFR-2 [8]) [%] | VEGFR2 HCT116 RQ (relative quantification) (VEGFR-2 [8]) | SI = CC50/IC50 [9] |
| --- | --- | --- | --- | --- | --- | --- | --- | --- | --- | --- | --- | --- | --- | --- | --- | --- | --- | --- | --- |
| CC(=O)Oc1ccccc1C(=O)N1C/C(=C\c2cccs2)C(=O)/C(=C/c2cccs2)C1 [Compound 5i, 2-[(3E,5E)-4-Oxo-3,5-bis(thiophen-2-ylmethylene)piperidine-1-carbonyl]phenyl acetate] | 9260 ± 610 | 2.06 | 46.3 | 2.000 | 772 | 0.589 | 61.3 | 1.564 | 5580 ± 520 | 3.41 | 19000 ± 990 | 63.6 | 1.540 | 455 | 2150 ± 150 | 8.8 | 39.8 | 2.297 | 125.6 |
| CC(=O)Oc1ccc(Cl)cc1C(=O)N1C/C(=C\c2ccccc2)C(=O)/C(=C/c2ccccc2)C1 [Compound 5j, 4-Chloro-2-[3,5-di((E)-benzylidene)-4-oxopiperidine-1-carbonyl]phenyl acetate] | 2620 ± 190 | 3.53 | 49.0 | 1.9 | 1190 | 0.120 | 68.5 | 1.273 | 4500 ± 390 | 2.06 | 9260 ± 750 | 65.7 | 1.45 | 142 | 2510 ± 180 | 3.7 | 79.0 | 0.8 | 5.7 |
| CC(=O)Oc1ccc(Cl)cc1C(=O)N1C/C(=C\c2ccc(Cl)cc2)C(=O)/C(=C/c2ccc(Cl)cc2)C1 [Compound 5k, 2-[3,5-Bis((E)-4-chlorobenzylidene)-4-oxopiperidine-1-carbonyl]-4-chlorophenyl acetate] | 1970 ± 170 | 3.94 | 59.7 | 1.5 | 676 | 0.578 | 63.4 | 1.479 | 4070 ± 330 | 1.91 | 7770 ± 560 | 69.0 | 1.31 | 391 | 417 ± 30 | 18.6 | 68.6 | 1.2 | 10.3 |
| CC(=O)Oc1ccc(Cl)cc1C(=O)N1C/C(=C\c2ccc(Br)cc2)C(=O)/C(=C/c2ccc(Br)cc2)C1 [Compound 5l, 2-[3,5-Bis((E)-4-bromobenzylidene)-4-oxopiperidine-1-carbonyl]-4-chlorophenyl acetate] | 1150 ± 130 | 6.27 | 70.5 | 1.1 | 1010 | 0.582 | 66.9 | 1.336 | 4150 ± 370 | 1.74 | 7230 ± 490 | 66.9 | 1.4 | 590 | 667 ± 70 | 10.8 | 76.4 | 0.9 | 11.1 |
